Assays:
[1] = biological target: T1, CARM1 (also known as PRMT4) (Homo sapiens, UniProt Q86X55); assay: CARM1 enzyme inhibition; assay type: biochemical; details: read-out: Ki CARM1; competitive inhibitors
T1 sequence (Q86X55 1-608): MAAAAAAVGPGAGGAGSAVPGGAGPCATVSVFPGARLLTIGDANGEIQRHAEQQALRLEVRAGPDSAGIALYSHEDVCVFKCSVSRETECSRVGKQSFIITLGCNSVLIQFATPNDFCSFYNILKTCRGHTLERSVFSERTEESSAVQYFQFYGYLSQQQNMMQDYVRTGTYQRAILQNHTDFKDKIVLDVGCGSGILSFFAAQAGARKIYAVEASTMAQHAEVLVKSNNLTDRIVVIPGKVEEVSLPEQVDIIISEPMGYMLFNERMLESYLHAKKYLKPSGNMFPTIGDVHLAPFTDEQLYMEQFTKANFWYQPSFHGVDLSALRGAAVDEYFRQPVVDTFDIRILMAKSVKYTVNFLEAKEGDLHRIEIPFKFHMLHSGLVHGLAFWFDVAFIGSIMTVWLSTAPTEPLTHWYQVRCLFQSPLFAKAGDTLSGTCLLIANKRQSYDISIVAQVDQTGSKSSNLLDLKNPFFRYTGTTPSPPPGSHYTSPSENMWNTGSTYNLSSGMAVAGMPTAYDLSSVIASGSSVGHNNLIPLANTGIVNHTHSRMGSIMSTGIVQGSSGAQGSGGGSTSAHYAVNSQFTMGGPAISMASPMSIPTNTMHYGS

[2] = biological target: PRMT1 (Homo sapiens, UniProt Q99873); assay: PRMT1 enzyme inhibition; assay type: biochemical; details: read-out: Ki PRMT1; competitive inhibitors
Chain of PRMT1 (Q99873 whole entry, species assumed): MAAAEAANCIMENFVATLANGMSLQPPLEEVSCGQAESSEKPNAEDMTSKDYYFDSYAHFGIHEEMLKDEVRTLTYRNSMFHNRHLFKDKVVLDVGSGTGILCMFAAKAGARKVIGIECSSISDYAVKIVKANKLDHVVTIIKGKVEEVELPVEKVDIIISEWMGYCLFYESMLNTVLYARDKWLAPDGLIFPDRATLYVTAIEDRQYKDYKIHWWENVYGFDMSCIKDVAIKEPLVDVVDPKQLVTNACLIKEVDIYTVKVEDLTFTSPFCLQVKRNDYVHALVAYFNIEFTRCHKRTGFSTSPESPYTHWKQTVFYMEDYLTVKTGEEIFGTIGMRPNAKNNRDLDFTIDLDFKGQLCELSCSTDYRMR

[3] = biological target: T2, G9a (Homo sapiens, UniProt Q96KQ7); assay: G9a enzyme inhibition; assay type: biochemical
T2 sequence (Q96KQ7 1-1210): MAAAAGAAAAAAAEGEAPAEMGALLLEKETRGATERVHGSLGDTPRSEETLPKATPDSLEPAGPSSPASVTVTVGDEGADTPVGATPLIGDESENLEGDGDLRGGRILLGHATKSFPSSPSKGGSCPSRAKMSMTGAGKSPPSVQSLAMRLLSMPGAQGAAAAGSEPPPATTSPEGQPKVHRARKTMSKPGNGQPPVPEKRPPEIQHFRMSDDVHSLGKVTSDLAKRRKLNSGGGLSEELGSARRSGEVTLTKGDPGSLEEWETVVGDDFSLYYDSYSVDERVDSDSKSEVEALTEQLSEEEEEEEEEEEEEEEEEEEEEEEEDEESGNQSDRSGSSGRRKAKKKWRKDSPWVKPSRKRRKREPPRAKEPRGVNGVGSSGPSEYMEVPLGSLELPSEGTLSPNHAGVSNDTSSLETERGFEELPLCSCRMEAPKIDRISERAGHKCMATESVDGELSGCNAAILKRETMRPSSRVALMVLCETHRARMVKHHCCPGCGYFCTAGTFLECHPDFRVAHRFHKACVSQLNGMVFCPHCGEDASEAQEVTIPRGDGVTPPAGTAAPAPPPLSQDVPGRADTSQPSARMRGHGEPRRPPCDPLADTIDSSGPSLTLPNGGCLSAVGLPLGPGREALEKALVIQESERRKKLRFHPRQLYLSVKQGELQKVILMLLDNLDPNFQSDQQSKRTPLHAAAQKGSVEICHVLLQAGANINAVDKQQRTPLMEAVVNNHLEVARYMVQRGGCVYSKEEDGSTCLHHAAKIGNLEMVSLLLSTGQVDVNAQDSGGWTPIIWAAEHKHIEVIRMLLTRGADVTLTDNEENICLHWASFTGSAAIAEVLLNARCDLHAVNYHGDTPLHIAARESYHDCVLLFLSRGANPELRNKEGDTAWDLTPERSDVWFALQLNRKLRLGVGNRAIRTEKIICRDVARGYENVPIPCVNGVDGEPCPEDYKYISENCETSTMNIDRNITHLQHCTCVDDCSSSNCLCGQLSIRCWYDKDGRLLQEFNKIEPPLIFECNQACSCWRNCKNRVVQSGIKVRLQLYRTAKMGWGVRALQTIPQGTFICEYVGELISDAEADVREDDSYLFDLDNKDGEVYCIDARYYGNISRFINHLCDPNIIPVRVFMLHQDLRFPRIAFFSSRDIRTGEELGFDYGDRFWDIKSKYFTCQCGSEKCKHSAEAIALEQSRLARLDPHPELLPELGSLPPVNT

[4] = system: SAH hydrolase; details: in cells / in vivo; cited from earlier work

Row | Ki [1] [µM] | Ki [2] [µM] | activity on G9a [3] | Ki ([3]; read-out: Ki G9a, competitive inhibitors) [µM] | SMILES | degradation to adenosine and homocysteine by SAH hydrolase [4]
1 | 18 | 21.2 | inactive | > 100 | N[C@@H](CCSC[C@H]1O[C@@H](n2cnc3c(NCc4ccccc4)ncnc32)[C@H](O)[C@@H]1O)C(=O)O [Compound 2, N6-benzyl-SAH] | 
2 |  |  |  |  | Nc1ncnc2c1ncn2[C@@H]1O[C@H](CSCC[C@H](N)C(=O)O)[C@@H](O)[C@H]1O [SAH, S-(5'-adenosyl)-L-homocysteine] | quickly degraded
